From patent US20220146526A1, “METHOD FOR EVALUATING SAMPLE, ANALYSIS METHOD, METHOD FOR DETECTING DEGRADED SAMPLE, MARKER FOR DETECTING DEGRADED BLOOD PLASMA SAMPLE, AND MARKER FOR DETECTING DEGRADED SERUM SAMPLE” (SHIMADZU CORPORATION, priority 2019, published 2022)
Each block holds one compound with its values, some of them ahead of it.

What was measured:
Format in all cases: physicochemical, human
[1] = GC/MS of serum sample: time from centrifugation to isolation (Table H); set-up: key to Rate of increase or decrease / Rate of increase or decrease (first value, increase): detection intensity relative to 1 at 30 min centrifugation-to-isolation; conditions: for Rate of increase or decrease: detection intensity relative to 1 at 30 minutes; for Increase or decrease: detection intensity
Experimental: (§1) After standing, the blood sample was subjected to centrifugation under a condition of room temperature, 3500 rpm, and 5 minutes. […] After centrifugation, the blood-collecting vessel was left to stand at room temperature, and the serum was isolated during this time. Here, in order to investigate how the detection intensity of molecules contained in the sample was affected in cases where the time during which the blood-collecting vessel was left at room temperature was set to 1 hour and 6 hours as compared to that in a case where the time was set to 30 minutes, preparations were performed under the respective conditions of 30 minutes, 1 hour, and 6 hours. The obtained serum sample was frozen and stored. Here, in order to investigate how the detection intensity of molecules contained in the sample was affected in cases where freezing and thawing was performed 4 times, 6 times, and 10 times after freezing as compared to that in a case where freezing and thawing was performed 2 times after freezing, freezing and thawing was performed under the respective conditions of 2, 4, 6, and 10 times.
(§2) Frozen blood plasma samples and serum samples were subjected to GC/MS or LC/MS. In GC/MS, the blood plasma samples and serum samples were subjected to methoxymation and trimethylsilylation and then introduced to GC-MS.
(§3) GC/MS was conducted using GCMS·TQ8040 (Shimadzu Corporation) that was a GC·MS equipped with AOC·20i (Shimadzu Corporation) as an autosampler.
(§4) Column: BPX5 (inner diameter of 0.25 mm, length of 30 m, and film thickness of 0.25 μm) (SGE)
(§5) Column temperature: maintained at 60° C. for 2 minutes, then raised at 15° C./min, and maintained at 330° C. for 3 minutes.
(§6) Inlet temperature: 250° C.
(§7) Carrier gas control mode: constant linear velocity of 39.0 cm/sec
(§8) Sample introduction method: split (split ratio of 30:1) Injection volume: 1 μL
(§9) Ionization method: electron ionization
(§10) Ionization current: 60 μA
(§11) Interface temperature: 280° C.
(§12) Ion source temperature: 200° C.
(§13) Mode: multiple reaction monitoring (MRM)
The rate of increase or decrease in Table H is the value of detection intensity relative to 1 that is the detection intensity in a case where the time from centrifugation to isolation is set to 30 minutes.

[2] = GC/MS of serum sample: time from blood collection to centrifugation (Table G); conditions: blood collection to centrifugation; for Rate of increase or decrease: detection intensity relative to 1 at 15 minutes; for Increase or decrease: detection intensity
Experimental: as §1, §2, §3, §4, §5, §6, §7, §8, §9, §10, §11, §12, §13
The rate of increase or decrease in Table G is the value of detection intensity relative to 1 that is the detection intensity in a case where the time from blood collection to centrifugation is set to 15 minutes.

[3] = GC/MS of serum sample: number of times of freezing and thawing (Table I); set-up: key to Rate of increase or decrease / Rate of increase or decrease (first value, increase): detection intensity relative to 2 freeze-thaw cycles = 1; conditions: for Rate of increase or decrease: detection intensity relative to 1 at 2 times; for Number of times when compound is affected: detection intensity changed by 30% or more vs 2 times of freezing and thawing
Experimental: as §1, §2, §3, §4, §5, §6, §7, §8, §9, §10, §11, §12, §13
The rate of increase or decrease in Table I is the value of detection intensity relative to 1 that is the detection intensity in a case where the number of times of freezing and thawing is set to 2 times.

[4] = serum, GC/MS, freezing and thawing 6 times
[5] = detection intensity, serum, GC/MS, freezing and thawing 6 times vs 2 times
[6] = 10 times of freezing and thawing
[7] = serum sample, GC/MS, detection intensity vs 2 times of freezing and thawing

- Rate of increase or decrease ([1]; after 1 hour): 1.31
- Increase or decrease ([1]; after 1 hour vs 30 minutes): Increase
- Rate of increase or decrease ([2]; after 8 hours): 2.00
- Increase or decrease ([2]; after 8 hours vs 15 minutes): Increase
SMILES: O=C(O)CCC(O)C(=O)O (stereo not drawn) [2-Hydroxyglutaric acid]

- Rate of increase or decrease ([2]; after 8 hours): 0.67
- Increase or decrease ([2]; after 8 hours vs 15 minutes): Decrease
SMILES: CC(C)C(=O)C(=O)O [2-Ketoisovaleric acid]

- Rate of increase or decrease ([2]; after 12 hours): 1.35
- Increase or decrease ([2]; after 12 hours vs 15 minutes): Increase
SMILES: CC(C)(O)CC(=O)O [3-Hydroxyisovaleric acid]

- Increase or decrease ([1]; after 6 hours vs 30 minutes): Different from individual
- Rate of increase or decrease (second value, decrease) ([1]; different from individual to individual, individuals with decrease, relative to 1 at 30 minutes, after 6 hours): 0.65
- Rate of increase or decrease (first value, increase) ([1]; different from individual to individual, individuals with increase, relative to 1 at 30 minutes, after 6 hours): 1.91
- Rate of increase or decrease ([3]; serum, GC/MS, freezing and thawing 4 times): 0.55
- Increase or decrease ([3]; detection intensity, serum, GC/MS, freezing and thawing 4 times vs 2 times): Decrease
SMILES: O=C(O)CCO [3-Hydroxypropionic acid]

- Rate of increase or decrease ([1]; after 1 hour): 1.71
- Increase or decrease ([1]; after 1 hour vs 30 minutes): Increase
SMILES: O=C(O)c1ccc(CO)o1 [5-Hydroxymethyl-2-furancarboxylic acid]

- Rate of increase or decrease ([2]; after 4 hours): 0.68
- Increase or decrease ([2]; after 4 hours vs 15 minutes): Decrease
SMILES: CC(=O)NCC(=O)O [Acetylglycine]

- Rate of increase or decrease [3, 4]: 0.62
- Increase or decrease [3, 5]: Decrease
SMILES: O=C[C@H](O)[C@H](O)[C@H](O)[C@H](O)CO [Allose]

- Rate of increase or decrease ([1]; after 6 hours): 1.69
- Increase or decrease ([1]; after 6 hours vs 30 minutes): Increase
- Rate of increase or decrease [3, 6]: 2.43
- Number of times when compound is affected ([3]; serum sample, GC/MS): 10 times
- Increase or decrease [3, 7]: Increase
SMILES: N[C@H]1C(O)O[C@H](CO)[C@@H](O)[C@@H]1O (stereo partly drawn) [Glucosamine]

The remaining lines, values behind:

SMILES: NCCC(=O)O [3-Aminopropionic acid (β-alanine), 3-Aminopropionic acid]
- Rate of increase or decrease ([2]; after 8 hours): 1.46
- Increase or decrease ([2]; after 8 hours vs 15 minutes): Increase

SMILES: Nc1c(O)cccc1C(=O)O [3-Hydroxyanthranyl acid]
- Rate of increase or decrease [3, 4]: 1.34
- Increase or decrease [3, 5]: Increase
- Rate of increase or decrease ([2]; after 4 hours): 0.59
- Increase or decrease ([2]; after 4 hours vs 15 minutes): Decrease

SMILES: CCCCCCCCCC(=O)O [Decanoic acid]
- Rate of increase or decrease ([2]; after 8 hours): 0.69
- Increase or decrease ([2]; after 8 hours vs 15 minutes): Decrease

SMILES: O=C(O)[C@H](O)[C@@H](O)[C@H](O)[C@H](O)CO [Gluconic acid]
- Increase or decrease ([2]; after 12 hours vs 15 minutes): Increase

SMILES: O=C(O)CCCC(=O)O [Glutaric acid]
- Rate of increase or decrease ([2]; after 8 hours): 1.39
- Increase or decrease ([2]; after 8 hours vs 15 minutes): Increase

SMILES: NO [Hydroxylamine]
- Rate of increase or decrease ([1]; after 6 hours): 1.87
- Increase or decrease ([1]; after 6 hours vs 30 minutes): Increase
- Rate of increase or decrease [3, 6]: 2.31
- Number of times when compound is affected ([3]; serum sample, GC/MS): 10 times
- Increase or decrease [3, 7]: Increase

SMILES: O[C@H]1[C@H](O)[C@@H](O)[C@H](O)[C@@H](O)[C@H]1O [Inositol]
- Rate of increase or decrease ([2]; after 8 hours): 1.46
- Increase or decrease ([2]; after 8 hours vs 15 minutes): Increase

SMILES: CCCCCCCCCCCCCCCCC(=O)O [Margaric acid, margaric acid]
- Rate of increase or decrease [3, 6]: 1.35
- Number of times when compound is affected ([3]; serum sample, GC/MS): 10 times
- Increase or decrease [3, 7]: Increase
